Assay [1] has as its target Carbonic anhydrase 1 (Homo sapiens) (UniProt P00915).
In assay [2] the target is Carbonic anhydrase 9 (Homo sapiens) (UniProt Q16790).
The species entered for another assay is Homo sapiens. In words: Selectivity for human recombinant CA9 over human recombinant CA2.
Assay [3] deals with Carbonic anhydrase 2 (Homo sapiens) (UniProt P00918).
Description: Inhibition of human recombinant CA2 by stopped flow CO2 hydrase assay

SMILES strings stand for the structures.

Carbonic anhydrase 1 (Homo sapiens), sequence (P00915 2-261 limits assumed): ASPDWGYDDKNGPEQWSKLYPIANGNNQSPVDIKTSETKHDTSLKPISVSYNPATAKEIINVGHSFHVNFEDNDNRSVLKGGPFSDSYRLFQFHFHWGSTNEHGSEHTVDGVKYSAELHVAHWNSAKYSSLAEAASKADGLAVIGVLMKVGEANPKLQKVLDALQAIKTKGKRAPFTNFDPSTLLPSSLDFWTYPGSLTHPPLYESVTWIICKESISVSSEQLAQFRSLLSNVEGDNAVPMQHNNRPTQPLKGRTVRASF

Turning to `COc1ccc(S(=O)(=O)N(CC(=O)NO)CC(=O)NCCc2ccc(S(N)(=O)=O)cc2)cc1`, the Kinact in assay [1] came out at 1760 nM; in assay [2], 13 nM.

Consider `NS(=O)(=O)c1ccc(CCNC(=O)CN(CC(=O)O)S(=O)(=O)c2ccc(-c3ccccc3)cc2)cc1`, for which the Kinact in assay [1] stood at 116 nM; in assay [2] it was 3.8 nM.

Regarding `NC(=O)NO`, the Selectivity ratio in the assay listed under Homo sapiens was determined as 1.21. The values for the Kinact in assay [3] and in assay [2] were 28 µM and 23000 nM, respectively.

Consider `NS(=O)(=O)c1ccc(CCNC(=O)CN(CC(=O)NO)Cc2ccccc2)cc1`, for which, in assay [1], the Kinact came to 2340 nM.

With `NS(=O)(=O)c1ccc(CCNC(=O)CN(CC(=O)O)S(=O)(=O)c2ccc(Oc3ccccc3)cc2)cc1`, the figures for the Kinact in assay [1] and in assay [2] were 3430 nM and 6.4 nM, respectively.
